Data from patent EP2058306A1, “Heteroaryl-substituted 2-pyridinyl-methylamine derivatives” (SCHWARZ PHARMA AG, priority 2007, dated 2009).
Like-named read-outs stand apart in the source and are kept apart here.

How the values were obtained:
[1] = biological target: T1, dopamine D1 receptor (Sus scrofa, UniProt P50130); assay: radioligand binding assay, dopamine D1 receptor, [3H]SCH 23390; conditions: porcine striatum membranes, mean of two to five experiments in triplicate, read-out: Ki D1
T1 construct: native membrane preparations from porcine striatum; from tissue; host or cells: porcine striatum
Description: (§1) Biological activity of the compounds has been determined in radioligand binding assays. These experiments have been done according to methods which are described in literature (Hübner, H. et al., J. Med. Chem. (2000), 43, 7562). For the determination of binding affinity to the receptors of the dopamine D2 family membranes were established carrying the human D2long, D2short, D3 or D4.4 receptor subtype stably expressed in Chinese hamster ovary cell lines. In principle, the binding experiments started when incubating an appropriate amount of membrane with the radioligand [^3H]spiperone and the particular test compounds used in a wide range of different concentrations from subnanomolar up to micromolar ones. In the same way, binding affinities of the test compounds to the dopamine D1 receptor were determined when using native membrane preparations from porcine striatum and the D1 selective radioligand [^3H]SCH 23390.
(§2) The results of the binding experiments are summarized in Table 1 as mean values of two to five individual experiments each done in triplicate and expressed as Ki values in nM.

[2] = biological target: human D2long, D2short (Homo sapiens, UniProt P14416); assay: biochemical; type: binding; conditions: CHO cell membranes, [3H]spiperone; mean of two to five experiments in triplicate; read-out: Ki D2
Protocol: as §1, with “These” for “Biological activity of the compounds has been determined in radioligand binding assays. These”, “ones.” for “ones. In the same way, binding affinities of the test compounds to the dopamine D1 receptor were determined when using native membrane preparations from porcine striatum and the D1 selective radioligand [^3H]SCH 23390.”

[3] = biological target: human D3 (Homo sapiens, UniProt P35462); assay: radioligand binding assay, dopamine D3 receptor, [3H]spiperone; conditions: CHO cell membranes, mean of two to five experiments in triplicate, read-out: Ki D3
Protocol: as §1, with “These” for “Biological activity of the compounds has been determined in radioligand binding assays. These”, “ones.” for “ones. In the same way, binding affinities of the test compounds to the dopamine D1 receptor were determined when using native membrane preparations from porcine striatum and the D1 selective radioligand [^3H]SCH 23390.”

[4] = biological target: T2, human D4.4 (Homo sapiens, UniProt P21917); assay: radioligand binding assay, dopamine D4.4 receptor, [3H]spiperone; conditions: CHO cell membranes, mean of two to five experiments in triplicate, read-out: Ki D4.4
T2 sequence (P21917 1-419): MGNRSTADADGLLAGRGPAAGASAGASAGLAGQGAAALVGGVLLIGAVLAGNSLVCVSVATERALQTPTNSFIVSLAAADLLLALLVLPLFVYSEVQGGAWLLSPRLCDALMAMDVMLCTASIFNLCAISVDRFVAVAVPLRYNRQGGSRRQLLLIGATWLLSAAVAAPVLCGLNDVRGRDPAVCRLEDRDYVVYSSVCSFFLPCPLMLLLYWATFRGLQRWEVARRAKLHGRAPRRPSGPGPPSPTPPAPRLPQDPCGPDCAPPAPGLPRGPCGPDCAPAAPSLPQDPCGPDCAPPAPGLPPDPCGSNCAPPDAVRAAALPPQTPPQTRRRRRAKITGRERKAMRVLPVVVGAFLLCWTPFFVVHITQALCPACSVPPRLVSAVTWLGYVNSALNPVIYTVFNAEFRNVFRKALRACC
Description: as §1, §2

[5] = biological target: T3, 5-HT1A (Sus scrofa, UniProt A0A4X1UTF5); assay: radioligand binding assay, serotonin 5-HT1A receptor, [3H]WAY 100635; conditions: porcine cortex membranes, mean of two to five experiments in triplicate, read-out: Ki 5-HT1a
T3 construct: membrane preparations from porcine cortex; from tissue; host or cells: porcine cortex
T3 sequence (A0A4X1UTF5 1-422): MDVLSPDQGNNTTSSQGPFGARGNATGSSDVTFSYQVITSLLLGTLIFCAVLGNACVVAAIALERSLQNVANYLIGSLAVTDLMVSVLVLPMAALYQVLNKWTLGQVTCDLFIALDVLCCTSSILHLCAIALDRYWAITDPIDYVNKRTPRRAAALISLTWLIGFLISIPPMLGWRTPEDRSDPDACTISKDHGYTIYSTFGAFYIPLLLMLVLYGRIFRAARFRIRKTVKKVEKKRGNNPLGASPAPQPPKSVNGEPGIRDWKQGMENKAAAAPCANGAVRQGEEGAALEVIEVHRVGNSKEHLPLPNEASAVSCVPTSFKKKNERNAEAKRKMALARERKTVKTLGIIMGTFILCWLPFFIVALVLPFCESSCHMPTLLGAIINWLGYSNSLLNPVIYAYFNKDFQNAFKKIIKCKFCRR
Protocol: (§3) The investigation of receptor binding to the serotonin and adrenergic receptors was done according to a published procedure (Heindl, C. et al., Tetrahedron: Asymmetry (2003), 14, 3141-3152). In detail, for the determination of the binding properties to serotonin receptors membrane preparations from porcine cortex was incubated with the 5-HT1A selective radioligand [^3H]WAY 100635 or with the 5-HT2 selective compound [^3H]ketanserin. The measurement of alpha-1 and alpha-2 receptor binding was achieved when utilizing porcine cortical membranes and the selective radioligands [^3H]prazosin (for alpha-1) and [^3H]RX821002 in an assay similar to that described above.
as §2

[6] = biological target: T4, 5-HT2 (Sus scrofa, UniProt P50129); assay: radioligand binding assay, serotonin 5-HT2 receptor, [3H]ketanserin; design: species or system porcine
T4 construct: membrane preparations from porcine cortex; from tissue; host or cells: porcine cortex

[7] = biological target: alpha-1; assay: radioligand binding assay, adrenergic alpha-1 receptor, [3H]prazosin; conditions: porcine cortical membranes, mean of two to five experiments in triplicate, read-out: Ki alpha1
Protocol: as §3, §2

[8] = porcine cortex membranes, [3H]ketanserin, mean of two to five experiments in triplicate, read-out: Ki 5-HT2

T4 sequence (P50129 whole entry): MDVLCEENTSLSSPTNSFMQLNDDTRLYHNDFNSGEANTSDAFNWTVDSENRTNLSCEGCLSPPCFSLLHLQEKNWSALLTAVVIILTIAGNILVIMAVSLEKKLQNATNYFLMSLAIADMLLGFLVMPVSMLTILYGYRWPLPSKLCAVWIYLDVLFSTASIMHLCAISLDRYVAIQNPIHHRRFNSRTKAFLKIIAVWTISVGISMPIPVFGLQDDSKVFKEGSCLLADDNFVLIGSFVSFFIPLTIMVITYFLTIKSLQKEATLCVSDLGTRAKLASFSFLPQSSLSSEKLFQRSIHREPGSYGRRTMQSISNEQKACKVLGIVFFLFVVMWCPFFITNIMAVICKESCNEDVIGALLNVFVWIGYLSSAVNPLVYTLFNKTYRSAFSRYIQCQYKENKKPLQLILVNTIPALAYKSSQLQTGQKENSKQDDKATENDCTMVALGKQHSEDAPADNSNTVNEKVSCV
T1 sequence (P50130 whole entry): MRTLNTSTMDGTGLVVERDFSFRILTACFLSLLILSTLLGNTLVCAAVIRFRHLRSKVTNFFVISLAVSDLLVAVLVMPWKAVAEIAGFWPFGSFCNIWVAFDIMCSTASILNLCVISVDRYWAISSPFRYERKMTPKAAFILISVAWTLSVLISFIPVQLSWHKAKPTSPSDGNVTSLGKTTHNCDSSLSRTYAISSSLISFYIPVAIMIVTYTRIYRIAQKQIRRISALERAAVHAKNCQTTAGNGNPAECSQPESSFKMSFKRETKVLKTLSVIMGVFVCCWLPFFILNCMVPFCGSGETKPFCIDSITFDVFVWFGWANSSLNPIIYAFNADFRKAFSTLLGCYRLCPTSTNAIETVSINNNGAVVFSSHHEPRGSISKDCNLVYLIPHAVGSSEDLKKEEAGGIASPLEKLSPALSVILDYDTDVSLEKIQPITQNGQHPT
human D3, sequence (P35462 whole entry): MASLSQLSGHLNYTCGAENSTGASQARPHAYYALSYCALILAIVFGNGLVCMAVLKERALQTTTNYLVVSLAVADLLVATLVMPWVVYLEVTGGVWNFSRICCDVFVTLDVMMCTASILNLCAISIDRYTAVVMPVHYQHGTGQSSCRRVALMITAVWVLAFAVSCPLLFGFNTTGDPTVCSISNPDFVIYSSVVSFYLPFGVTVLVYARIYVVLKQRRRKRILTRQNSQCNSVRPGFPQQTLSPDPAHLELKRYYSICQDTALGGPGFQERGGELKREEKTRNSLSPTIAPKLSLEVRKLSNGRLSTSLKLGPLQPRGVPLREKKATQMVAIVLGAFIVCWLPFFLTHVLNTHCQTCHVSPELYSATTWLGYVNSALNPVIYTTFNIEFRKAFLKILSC
human D2long, D2short, sequence (P14416 whole entry): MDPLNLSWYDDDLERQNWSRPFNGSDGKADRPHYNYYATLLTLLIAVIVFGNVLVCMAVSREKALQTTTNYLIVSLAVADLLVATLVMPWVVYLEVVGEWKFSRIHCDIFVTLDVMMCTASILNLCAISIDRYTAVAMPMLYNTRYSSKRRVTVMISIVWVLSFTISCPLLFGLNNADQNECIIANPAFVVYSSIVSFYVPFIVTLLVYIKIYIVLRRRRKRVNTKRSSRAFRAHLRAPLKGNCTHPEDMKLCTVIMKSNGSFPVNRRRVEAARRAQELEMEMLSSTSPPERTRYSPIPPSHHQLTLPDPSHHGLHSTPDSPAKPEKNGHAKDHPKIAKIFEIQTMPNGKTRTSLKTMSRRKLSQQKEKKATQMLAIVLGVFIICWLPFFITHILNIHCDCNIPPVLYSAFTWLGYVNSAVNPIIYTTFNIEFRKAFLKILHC

Ki [1] [µM]	Ki [2] [µM]	Ki [3] [µM]	Ki [4] [µM]	Ki [5] [µM]	Ki [6] [µM]	Ki [7] [µM]	Ki [6, 8] [µM]	Compound
> 5	> 5	0.501 to 5	0.501 to 5	0.05 to 0.5	> 5	0.05 to 0.5	–	Cc1ccc(CNCC2(F)CCN(C(=O)c3cc4cc(Br)ccc4s3)CC2)nc1 [Example E24, 5-Bromobenzo[b]thien-2-yl-[4-fluoro-4-[[(5-methylpyridin-2-ylmothyl)amino]methyl]piporidin-1-yl]-methanone]
> 5	> 5	> 5	0.05 to 0.5	< 0.05	–	0.501 to 5	> 5	Cc1ccc(CNCC2(F)CCN(C(=O)c3csc4ccccc34)CC2)nc1 [Example E25, Benzo[b]thien-3-yl-[4-fluoro-4-[[(5-methylpyridin-2-ylmethyl)amino]methyl]piperidin-1-yl]-methanone]
> 5	> 5	> 5	0.501 to 5	< 0.05	> 5	0.501 to 5	–	Cc1ccc(CNCC2(F)CCN(C(=O)c3cc4sccc4s3)CC2)nc1 [Example E26, [4-Fluoro-4-[[(5-methylpyridin-2-ylmethyl)amino]methyl]piperidin-1-yl]-thieno[3,2-b]thien-2-yl-mothanone]
> 5	> 5	> 5	0.05 to 0.5	< 0.05	–	0.501 to 5	> 5	Cc1ccc(CNCC2(F)CCN(C(=O)c3cc4ccsc4s3)CC2)nc1 [Example E27, [4-Fluoro-4-[[(5-methylpyridin-2-ylmethyl)amino]methyl]piperidin-1-yl]-thieno[2,3-b]thien-2-yl-methanone]
> 5	0.501 to 5	0.501 to 5	0.05 to 0.5	< 0.05	> 5	0.501 to 5	–	Cc1ccc(CNCC2(F)CCN(C(=O)c3sc4sccc4c3Cl)CC2)nc1 [Example E28, 3-Chlorothieno[2,3-b]thion-2-yl-[4-fluoro-4-[[(5-methylpyridin-2-ylmothyl)amino]methyl]piperidin-1-yl]-mothanone]
> 5	> 5	> 5	0.501 to 5	< 0.05	–	0.501 to 5	> 5	Cc1ccc(CNCC2(F)CCN(C(=O)c3scc4c3CCCC4)CC2)nc1 [Example E29, [4-Fluoro-4-[[(5-methylpyridin-2-ylmethyl)amino]methyl]pipendin-1-yl]-4,5,6,7-tetrahydrobenzo[c]thien-1-yl-methanone]
> 5	> 5	0.501 to 5	0.501 to 5	< 0.05	> 5	0.501 to 5	–	Cc1ccc(CNCC2(F)CCN(C(=O)c3sc(Br)c4c3OCCO4)CC2)nc1 [Example E30, 7-Bromo-2,3-dihydrothieno[3,4-b][1,4]dioxin-5-yl-[4-fluoro-4-[[5-methylpyridin-2-ylmethyl)aminolmothyl]piperidin-1-yl]-methanone]
> 5	> 5	> 5	> 5	0.05 to 0.5	–	> 5	> 5	Cc1ccc(CNCC2(F)CCN(C(=O)c3ccco3)CC2)nc1 [Example E31, [4-Fluoro-4-[[(5-methylpyridin-2-ylmethyl)amino]methyl]piperidin-1-yl]-furan-2-yl-methanone]
> 5	> 5	> 5	> 5	0.05 to 0.5	–	> 5	> 5	Cc1ccc(CNCC2(F)CCN(C(=O)c3ccoc3)CC2)nc1 [Example E33, [4-Fluoro-4-[[(5-methylpyridin-2-ylmethyl)amino]methyl]piperidin-1-yl]-furan-3-yl-methanone]
> 5	> 5	> 5	0.501 to 5	< 0.05	> 5	0.501 to 5	–	Cc1ccc(CNCC2(F)CCN(C(=O)c3coc(Br)c3)CC2)nc1 [Example E34, 5-Bromofuran-3-yl-[4.fluoro-4-[[(5-methylpyridin-2-ylmethyl)amino]methyl]piperidin-1-yl]-methanone]
> 5	> 5	> 5	0.501 to 5	0.05 to 0.5	> 5	0.501 to 5	–	Cc1ccc(CNCC2(F)CCN(C(=O)c3cc4ccccc4o3)CC2)nc1 [Example E35, Benzo[b]furan-2-yl-[4-fluoro-4-[[(5-methylpyridin-2-ylmothyl)amino]methyl]piperidin-1-yl]-methanone]
> 5	> 5	> 5	> 5	0.05 to 0.5	> 5	> 5	–	Cc1ccc(CNCC2(F)CCN(C(=O)c3cc4ccccn4n3)CC2)nc1 [Example E42]
> 5	> 5	> 5	> 5	0.05 to 0.5	–	0.501 to 5	> 5	Cc1ccc(CNCC2(F)CCN(C(=O)c3cnn4ccccc34)CC2)nc1 [Example E43, [4-Fluoro-4-[[(5-methylpyridin-2-ylmethyl)amino]methyl]piperidin-1-yl]-pyrazolo[1,5-a]pyridin-3-yl-methanone]

Compound	Ki [1] [µM]	Ki [2] [µM]	Ki [3] [µM]	Ki [4] [µM]	Ki [5] [µM]	Ki [6] [µM]	Ki [7] [µM]	Ki [6, 8] [µM]
[4-Fluoro-4-[[(5-methylpyridin-2-ylmethyl)amino]methyl]piperidin-1-yl]-indol-2-yl-methanone [Example E41]	> 5	> 5	0.501 to 5	0.501 to 5	0.05 to 0.5	–	0.501 to 5	> 5
